Results reported in the supplement of paper PMC10307832.

Compound: COc1cc2nc(N3CCCN(C)CC3)nc(NC3CCN(Cc4ccccc4)CC3)c2cc1OC + Nc1ncn([C@H]2C[C@H](O)[C@@H](CO)O2)c(=O)n1 [Decitabine] (partner 2 µM)
Assay: relative viability (nuclei count vs DMSO), 5 days (fraction); higher = more cells survive
Conditions: first compound 0.2 µM
How it was run: (§1)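 Cells from lung cancer lines were seeded into 1536-well plates and, one day later, dosed by pin tool. Treatments were either a single drug or a fixed dose of an anchor drug with five library-drug doses (not always all listed) in √10 steps. After 5 days, nuclei were stained in a one-step fixation (final 0.05% Triton X-100, 1% formaldehyde, 1 ug/ml Hoechst) and counted on 4× images, and relative viability is the treated-to-vehicle nuclei ratio, as the median of duplicate plates.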

First: HCC-827
Second: LXF-289
The relative viability of the first is lower: 0.172 for the first, 0.396 for the second.

Going from NCI-H23 to NCI-H647, the relative viability rises from 0.307 to 0.421.

Going from NCI-H1651 to EPLC-272H, the relative viability falls from 0.587 to 0.392.

Going from NCI-H1792 to NCI-H1355, the relative viability falls from 0.625 to 0.349.

Compared with NCI-H3122, NCI-H1437 is higher in relative viability: 0.398 for the first, 0.61 for the second.

First: NCI-H1755
Second: NCI-H2023
The relative viability of the first is higher: 0.657 for the first, 0.226 for the second.

First: HCC-15
Second: PC-14
The relative viability of the first is higher: 0.688 for the first, 0.193 for the second.

First: EKVX
Second: LC-2-ad
The relative viability of the first is lower: 0.329 for the first, 0.764 for the second.

Compared with NCI-H1975, RERF-LC-KJ is higher in relative viability: 0.37 for the first, 0.743 for the second.

Compared with NCI-H650, PC-3 [JPC-3] is higher in relative viability: 0.323 for the first, 0.863 for the second.

Same assay, conditions: first compound 0.6325 µM

Going from HCC-78 to NCI-H322M, the relative viability rises from 0.683 to 0.708.

Going from LCLC-97TM1 to NCI-H2009, the relative viability rises from 0.202 to 0.392.

Going from A-427 to NCI-H441, the relative viability falls from 0.551 to 0.225.

First: NCI-H661
Second: NCI-H1734
The relative viability of the first is higher: 0.569 for the first, 0.469 for the second.

Compared with NCI-H460, NCI-H2347 is higher in relative viability: 0.449 for the first, 0.617 for the second.

First: SK-LU-1
Second: 201T
The relative viability of the first is lower: 0.706 for the first, 0.812 for the second.

Going from NCI-H1915 to HCC-827, the relative viability rises from 0.26 to 0.315.

Going from LXF-289 to NCI-H23, the relative viability falls from 0.365 to 0.334.

Compared with NCI-H647, NCI-H1651 is higher in relative viability: 0.356 for the first, 0.598 for the second.

Going from EPLC-272H to NCI-H1792, the relative viability rises from 0.387 to 0.553.

Compared with NCI-H1355, NCI-H3122 is higher in relative viability: 0.343 for the first, 0.451 for the second.

First: NCI-H1437
Second: NCI-H1755
The relative viability of the first is lower: 0.522 for the first, 0.669 for the second.

Compared with NCI-H2023, HCC-15 is higher in relative viability: 0.218 for the first, 0.875 for the second.

Compared with PC-14, EKVX is higher in relative viability: 0.223 for the first, 0.318 for the second.

First: LC-2-ad
Second: NCI-H1975
The relative viability of the first is higher: 0.741 for the first, 0.39 for the second.

Going from RERF-LC-KJ to NCI-H650, the relative viability falls from 0.699 to 0.307.

Work on PC-3 [JPC-3] yielded a relative viability of 0.805.

Same assay, conditions: first compound 2 µM

Compared with HCC-78, NCI-H322M is higher in relative viability: 0.729 for the first, 0.768 for the second.

Going from LCLC-97TM1 to NCI-H2009, the relative viability rises from 0.225 to 0.43.

Going from A-427 to NCI-H441, the relative viability falls from 0.589 to 0.3.

Going from NCI-H661 to NCI-H1734, the relative viability falls from 0.588 to 0.516.

Going from NCI-H460 to NCI-H2347, the relative viability rises from 0.431 to 0.615.

Going from SK-LU-1 to 201T, the relative viability rises from 0.703 to 0.859.

Compared with NCI-H1915, HCC-827 is lower in relative viability: 0.276 for the first, 0.221 for the second.

Compared with LXF-289, NCI-H23 is lower in relative viability: 0.418 for the first, 0.316 for the second.

Compared with NCI-H647, NCI-H1651 is higher in relative viability: 0.394 for the first, 0.639 for the second.

Compared with EPLC-272H, NCI-H1792 is higher in relative viability: 0.341 for the first, 0.481 for the second.

First: NCI-H1355
Second: NCI-H3122
The relative viability of the first is lower: 0.343 for the first, 0.461 for the second.

Compared with NCI-H1437, NCI-H1755 is higher in relative viability: 0.584 for the first, 0.689 for the second.

Compared with NCI-H2023, HCC-15 is higher in relative viability: 0.25 for the first, 0.649 for the second.

Compared with PC-14, EKVX is higher in relative viability: 0.241 for the first, 0.343 for the second.

Compared with LC-2-ad, NCI-H1975 is lower in relative viability: 0.734 for the first, 0.419 for the second.

Compared with RERF-LC-KJ, NCI-H650 is lower in relative viability: 0.733 for the first, 0.392 for the second.

Cell Line PC-3 [JPC-3] has a relative viability of 0.718.

Same assay, conditions: first compound 6.325 µM

First: HCC-78
Second: NCI-H322M
The relative viability of the first is higher: 0.712 for the first, 0.708 for the second.

Compared with LCLC-97TM1, NCI-H2009 is higher in relative viability: 0.27 for the first, 0.375 for the second.

Going from A-427 to NCI-H441, the relative viability falls from 0.531 to 0.206.

Going from NCI-H661 to NCI-H1734, the relative viability falls from 0.689 to 0.519.

First: NCI-H460
Second: NCI-H2347
The relative viability of the first is lower: 0.389 for the first, 0.606 for the second.

Compared with SK-LU-1, 201T is higher in relative viability: 0.618 for the first, 0.799 for the second.

Going from NCI-H1915 to HCC-827, the relative viability rises from 0.264 to 0.326.

Going from LXF-289 to NCI-H23, the relative viability falls from 0.393 to 0.322.

Compared with NCI-H647, NCI-H1651 is higher in relative viability: 0.28 for the first, 0.617 for the second.

Going from EPLC-272H to NCI-H1792, the relative viability rises from 0.38 to 0.496.

First: NCI-H1355
Second: NCI-H3122
The relative viability of the first is higher: 0.375 for the first, 0.363 for the second.

Going from NCI-H1437 to NCI-H1755, the relative viability rises from 0.577 to 0.663.

Compared with NCI-H2023, HCC-15 is higher in relative viability: 0.114 for the first, 0.495 for the second.

Compared with PC-14, EKVX is higher in relative viability: 0.0753 for the first, 0.27 for the second.

First: LC-2-ad
Second: NCI-H1975
The relative viability of the first is higher: 0.856 for the first, 0.37 for the second.

Compared with RERF-LC-KJ, NCI-H650 is lower in relative viability: 0.679 for the first, 0.279 for the second.

PC-3 [JPC-3] gave a relative viability of 0.674.

Compound: Cc1cc([C@@H](C)Nc2ccccc2C(=O)O)c2nc(N3CCOCC3)cc(=O)n2c1 [AZD6482] + C[C@@H](Oc1cc(-c2cnn(C3CCNCC3)c2)cnc1N)c1c(Cl)ccc(F)c1Cl [Crizotinib] (partner 1 µM)
Assay: as above
Conditions: first compound 0.08 µM
How it was run: as §1

Going from HCC-78 to NCI-H322M, the relative viability rises from 0.295 to 0.769.

First: LCLC-97TM1
Second: NCI-H2009
The relative viability of the first is lower: 0.479 for the first, 0.884 for the second.

Going from A-427 to NCI-H441, the relative viability falls from 0.747 to 0.651.

First: NCI-H1734
Second: NCI-H460
The relative viability of the first is lower: 0.627 for the first, 0.874 for the second.

Going from 201T to NCI-H1915, the relative viability falls from 0.998 to 0.845.

Compared with HCC-827, LXF-289 is lower in relative viability: 0.894 for the first, 0.813 for the second.

Compared with NCI-H23, NCI-H647 is higher in relative viability: 0.444 for the first, 0.902 for the second.

Going from NCI-H1651 to EPLC-272H, the relative viability falls from 0.816 to 0.796.

Compared with NCI-H1792, NCI-H1355 is lower in relative viability: 0.909 for the first, 0.777 for the second.

NCI-H3122 was tested, and the relative viability was 0.243.
